Laboratory results reported in patent US5374655A, “Methods for the synthesis of monofucosylated oligosaccharides terminating in di-N-acetyllactosaminyl structures” (Alberta Research Council, priority 1992, dated 1994).

Columns and labels:
Balb/c mice [1] = assay: Persistence of suppression of the DTH inflammatory response, rechallenge 11 weeks after primary immunization; format: in vivo, mouse; conditions: rechallenge with L111 S-Layer protein 11 weeks after primary immunization
Experimental: (§1) DTH inflammatory responses were measured using the mouse footpad swelling assay as described by Smith and Ziola^31. […] Seven days later, each group of mice was footpad-challenged with 10 μg of L-111 S-Layer protein. The resulting inflammatory footpad swelling was measured with a Mitutoyo Engineering micrometer 24 hours after challenge.
i. The identical groups of mice treated with hexasaccharide glycoside 5a in Example 7 were rechallenged with L111 S-Layer protein 11 weeks after primary immunization.

ELAM-1 = ELAM-1 dependent cell adhesion to activated vascular endothelium (U937 or HL60 binding to TNFα-stimulated HUVECs); format: cell-based, human; conditions: HUVECs stimulated with TNFα (10 ng/ml); U937 or HL60 cells
Experimental: This example examines whether hexasaccharide 5a could inhibit ELAM-1 dependent cell adhesion to activated vascular endothelium. Specifically, an vitro cell binding assay was preformed as described by Lowe et al^33. Briefly, human umbilical vein endothelial cells (HUVECs purchased from Cell Systems, Seattle, Wash., USA) were stimulated with TNFα (10 ng/ml) to express ELAM-1.

Balb/c mice [2] = assay: Mouse footpad swelling assay, DTH inflammatory response to L111 S-Layer protein; format: in vivo; parameters: INCREASE IN FOOTPAD SWELLING: unit not given here
Experimental: as §1
To assess the effect of hexasaccharide glycoside 5a on the inflammatory DTH response, groups of mice received 100 μg of this compound, injected into the tail vein, 5 hours after challenge. Control groups received 100 μL of phosphate-buffered saline (PBS).

[3] = test system: α(13/4)fucosyltransferase; assay: Fucosyltransferase assay: relative rates of fucose transfer onto the 3-hydroxy of GlcNAc in βGal(1-4)βGlcNAc-OR; format: biochemical, human; conditions: fucosylation of disaccharide glycosides βGal(1-4)βGlcNAc-OR with different substituents at the 6-position of galactose
Experimental: The βGlcNAc α(13/4)fucosyltranferase was purified from human milk, as reported.^4 The enzymatic reactions were carried out at 37° C. in a plastic tube using a sodium cacodylate buffer (100 mM, pH 6.5), MnCl2 (10 mM), ATP (1.6 mM), NaN3 (1.6 mM). The reaction products were isolated and purified as indicated above.
Experiments were conducted to determine the relative rates of transfer of fucosylation onto the 3-hydroxy of the GlcNAc in disaccharide glycosides βGal(1-4)βGlcNAc-OR having different substituents at the 6-position of the galactose. Fucosyltransferase assays were conducted with α(13/4)fucosyltransferase in a manner similar to that described in the art^4 and gave the following results: […]

SMILES | footpad swelling relative to that exhibited in mice treated with PBS (Balb/c mice [1]) | reduction in footpad swelling (Balb/c mice [1]; versus PBS control) | inhibition of ELAM-1 dependent binding to the HUVECs (ELAM-1) | INCREASE IN FOOTPAD SWELLING (Balb/c mice [2]; 100 μg injected into the tail vein 5 hours after challenge, swelling measured 24 hours after challenge) | footpad swelling as compared to the control mice (Balb/c mice [2]; 100 μg into the tail vein 5 hours after challenge, 24 hours after challenge) | Relative Rate of Transfer [3]
COC(=O)CCCCCCCCO[C@@H]1O[C@H](CO)[C@@H](O[C@@H]2O[C@H](CO)[C@H](O)[C@H](O[C@@H]3O[C@H](CO)[C@@H](O[C@@H]4O[C@H](CO)[C@H](O)[C@H](O[C@]5(C(=O)O)C[C@H](O)[C@@H](NC(C)=O)[C@H]([C@H](O)[C@H](O)CO)O5)[C@H]4O)[C@H](O)[C@H]3NC(C)=O)[C@H]2O)[C@H](O[C@@H]2O[C@@H](C)[C@@H](O)[C@@H](O)[C@@H]2O)[C@H]1NC(C)=O [hexasaccharide glycoside 5a, 8-Methoxycarbonyloctyl (5-Acetamido-3,5-dideoxy-α-D-glycero-D-galacto-2-nonulopyranosylonicacid)-(2-3)--O--β-D-galactopyranosyl-(1-4)--O-- 2-acetamido-2-deoxy-β-D-glucopyranosyl-(1-3)--O--β-D-galactopyranosyl-(1-4)--O--[α-L-fucopyranosyl-(1-3)--O--]2-acetamido-2-deoxy-β-D-glucopyranoside] | about 60% | about 40% | inhibits ELAM-1 dependent binding to the HUVECs | 1.5 | less than 50% | –
COC(=O)CCOCCO[C@@H]1O[C@H](CO)[C@@H](O[C@@H]2O[C@H](C)[C@H](O)[C@H](O)[C@H]2O)[C@H](O)[C@H]1NC(C)=O [H] | – | – | – | – | – | 9
COC(=O)CCCCCCCCO[C@@H]1O[C@H](CO)[C@@H](O[C@@H]2O[C@H](CO)[C@H](O)[C@H](O)[C@H]2O)[C@H](O)[C@H]1NC(C)=O [--OH] | – | – | – | – | – | 100
